Test results from patent publication US11707447B1.
“Also recorded” adds a separate entry of the source.

How the values were obtained:
in vitro = in vitro ADME, human
Excerpt: (§1) A fundamental evaluation in drug development is the assessment of absorption, distribution, metabolism, excretion, and pharmacokinetics (ADME/PK) (Eddershaw et al., 2000, Drug Discovery Today 5(9): 409-414). […] Drug stability upon exposure to human liver microsomes and liver S9 cellular fractions is a common in vitro assay to approximate in vivo, liver-based drug metabolism (Richardson et al., 2016 Drug Metabolism Letters 10:83-90). First-pass metabolism is also often approximated in vitro using intestinal microsome and cellular S9 fractions (Hatley et al., 2017, Biopharmaceuticals & Drug Disposition, 38(2):155-160). Further, it is well known that human serum, and particularly circulating serum esterases can contribute to systemic drug metabolism (Williams, F M 1987, Pharmacology and Therapeutics, 34:99-109). Many pharmacological agents are classified as prodrugs, as they undergo metabolic transformation in vivo upon administration to release the active drug compound into the systemic compartment (Zawilska J B, et al. 2013, Pharmacological Reports, 65:1-14). Psilocybin, a serotonergic psychedelic agent, is well known prodrug that is metabolized into the psychoactive product, psilocin (Dinis-Oliveira, R J 2017, Drug Metabolism Reviews, 49(1):84-91). To evaluate the capacity of test molecules to similarly serve as prodrugs of psilocin, time-dependent, metabolic stability assays using human AB serum, human intestinal microsomes (HIM), human intestinal S9 fractions (HIS9), human liver microsomes (HLM), human liver S9 fractions (HLS9), human alkaline phosphatase, and porcine esterase were performed. […] Liquid chromatography coupled mass spectrometry (LC-MS) was employed to track the conversion of the test molecules into psilocin. All intestinal and liver fractions and NADPH RapidStart reagent was purchased from Sekisui/XenoTech. Human AB serum was purchased from Sigma. For intestine and liver metabolism assays, 2.5 μM candidate compounds were incubated in 400 μg/ml of each cellular fraction (HLM, HLS9, HIM, or HIS9) in 50 mM potassium phosphate buffer (pH 7.4) containing 3 mM MgCl2 and 1 mM EDTA supplemented with NADPH RapidStart at 37° C. Samples were taken at the start of the assay, and at every 20 minutes for 2 hours. Time-point samples were precipitated with 1:1 volume of acetonitrile to quench the reaction before centrifugation at 4000×g for 20 minutes. Supernatants were analyzed for the presence of candidate prodrugs (parent molecule) and psilocin (the predicted metabolite) using Orbitrap LC-MS (Thermo Scientific) using previously described methods (Menéndez-Perdomo et al., 2021, J. Mass Spectrom., 56: e4683). The serum assays were carried out in 10% human AB serum in 50 mM potassium phosphate buffer (pH 7.4) containing 3 mM MgCl2 and 1 mM EDTA. Bovine alkaline phosphatase assays were carried out using one unit of purified enzyme in 50 mM potassium phosphate buffer (pH 7.4) containing 3 mM MgCl2 and 1 mM EDTA. Porcine esterase assays were carried out using one unit of purified enzyme in 50 mM potassium phosphate buffer (pH 7.4) containing 3 mM MgCl2 and 1 mM EDTA. Assay concentrations (μM) of both parent ‘prodrug’ molecule and psilocin metabolite, as quantified through LC-MS using routine standard curve procedures, were plotted as functions of assay time (minutes). The metabolism rate (T1/2) was determined from the metabolism curve plot using the one phase decay feature of GraphPad PRISM software (Version 9.2.0). The quantity of parent prodrug at time zero was set as 100%.
Positive controls were first tested to ensure that assays were functioning properly.

[1] = In vitro metabolic stability / psilocin release, human AB serum; type: in vitro ADME; settings: AB serum
Excerpt: as §1, with “For intestine and liver metabolism assays, 2.5 μM candidate compounds were incubated in 400 μg/ml of each cellular fraction (HLM, HLS9, HIM, or HIS9) in 50 mM potassium phosphate buffer (pH 7.4) containing 3 mM MgCl2 and 1 mM EDTA supplemented with NADPH RapidStart at 37° C. Samples were taken at the start of the assay, and at every 20 minutes for 2 hours. Time-point samples were precipitated with 1:1 volume of acetonitrile to quench the reaction before centrifugation at 4000×g for 20 minutes.” left out, “The serum assays were carried out in 10% human AB serum in 50 mM potassium phosphate buffer (pH 7.4) containing 3 mM MgCl2 and 1 mM EDTA. Bovine alkaline phosphatase assays were carried out using one unit of purified enzyme in 50 mM potassium phosphate buffer (pH 7.4) containing 3 mM MgCl2 and 1 mM EDTA. Porcine esterase assays were carried out using one unit of purified enzyme in 50 mM potassium phosphate buffer (pH 7.4) containing 3 mM MgCl2 and 1 mM EDTA.” left out, “100%. […]” for “100%.”

5-HT2A receptor = molecular target: T1, 5-HT2A receptor (Mus musculus, UniProt P35363); assay: Drug-induced Head Twitch Response (HTR) in mice; type: in vivo; settings: 1 mg/kg i.p., 15-to-30-minute window after dosing, vs vehicle
T1 construct: tissue Charles River; host or cells: whole animal, C57BL/6-Elite mice (brain neurons)

[2] = Mouse pharmacokinetic (PK) evaluation of drug metabolism to psilocin
[3] = Stability in enzyme-free control buffer; type: in vitro ADME; settings: enzyme-free buffer pH 7.4
Excerpt: A fundamental evaluation in drug development is the assessment of absorption, distribution, metabolism, excretion, and pharmacokinetics (ADME/PK) (Eddershaw et al., 2000, Drug Discovery Today 5(9): 409-414). […] Drug stability upon exposure to human liver microsomes and liver S9 cellular fractions is a common in vitro assay to approximate in vivo, liver-based drug metabolism (Richardson et al., 2016 Drug Metabolism Letters 10:83-90). First-pass metabolism is also often approximated in vitro using intestinal microsome and cellular S9 fractions (Hatley et al., 2017, Biopharmaceuticals & Drug Disposition, 38(2):155-160). […] Supernatants were analyzed for the presence of candidate prodrugs (parent molecule) and psilocin (the predicted metabolite) using Orbitrap LC-MS (Thermo Scientific) using previously described methods (Menéndez-Perdomo et al., 2021, J. Mass Spectrom., 56: e4683). […] Assay concentrations (μM) of both parent ‘prodrug’ molecule and psilocin metabolite, as quantified through LC-MS using routine standard curve procedures, were plotted as functions of assay time (minutes). The metabolism rate (T1/2) was determined from the metabolism curve plot using the one phase decay feature of GraphPad PRISM software (Version 9.2.0). The quantity of parent prodrug at time zero was set as 100%.

[4] = 1 mg/kg oral of administered compound, mean ± SD
[5] = 3 mg/kg oral of administered compound, mean ± SD
[6] = 10 mg/kg oral of administered compound, mean ± SD

T1 sequence (P35363 whole entry): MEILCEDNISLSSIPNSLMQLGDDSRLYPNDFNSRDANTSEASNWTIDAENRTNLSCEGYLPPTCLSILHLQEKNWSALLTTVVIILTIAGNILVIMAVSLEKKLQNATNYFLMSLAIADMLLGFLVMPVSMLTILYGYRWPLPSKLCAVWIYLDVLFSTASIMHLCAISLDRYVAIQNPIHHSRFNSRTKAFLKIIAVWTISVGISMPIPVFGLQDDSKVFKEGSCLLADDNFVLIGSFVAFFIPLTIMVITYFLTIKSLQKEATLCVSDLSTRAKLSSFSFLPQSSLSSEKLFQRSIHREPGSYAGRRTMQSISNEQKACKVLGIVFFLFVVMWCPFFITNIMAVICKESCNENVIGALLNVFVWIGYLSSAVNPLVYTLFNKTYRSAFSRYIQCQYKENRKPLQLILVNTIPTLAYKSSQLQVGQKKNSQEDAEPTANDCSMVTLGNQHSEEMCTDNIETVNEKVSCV

## CN(C)CCc1c[nH]c2cccc(OC(=O)OCc3ccccc3)c12 [B(II), reference compound]
In vitro; HLM
  metabolic stability / conversion to psilocin (in words): did not readily dissociate to psilocin under any conditions
In vitro; HLS9
  metabolic stability / conversion to psilocin (in words): did not readily dissociate to psilocin under any conditions
[1]
  metabolic stability / conversion to psilocin (in words): failed completely to dissociate
5-HT2A receptor
  Head Twitch Response (in words): elicit head twitching
[2]; 1 mg/kg oral of administered compound, 0.25 h, mean ± SD
  Plasma concentration of psilocin: 19.7 ± 5.50 ng/mL
[2]; 1 mg/kg oral of administered compound, 0.5 h, mean ± SD
  Plasma concentration of psilocin: 11.9 ± 2.03 ng/mL
[2]; 1 mg/kg oral of administered compound, 1 h, mean ± SD
  Plasma concentration of psilocin: 4.63 ± 0.788 ng/mL
[2]; 1 mg/kg oral of administered compound, 2 h, mean ± SD
  Plasma concentration of psilocin: 2.20 ± 0.850 ng/mL
[2]; 1 mg/kg oral of administered compound, 4 h, mean ± SD
  Plasma concentration of psilocin: 2.05 ± 0.359 ng/mL
[2]; 1 mg/kg oral of administered compound, 6 h, mean ± SD
  Plasma concentration of psilocin: 0.739 ± 0.288 ng/mL
[2]; 1 mg/kg oral of administered compound, 8 h, mean ± SD
  Plasma concentration of psilocin: 0.453 ± 0.0460 ng/mL
[2]; [4]
  AUC0-tlast/Dose (plasma psilocin): 21.0 ± 1.55 kg·ng·h/mL/mg
  Cmax/Dose (plasma psilocin): 19.7 ± 5.50 kg·ng/mL/mg
[2]; 3 mg/kg oral of administered compound, 0.25 h, mean ± SD
  Plasma concentration of psilocin: 55.6 ± 8.67 ng/mL
[2]; 3 mg/kg oral of administered compound, 0.5 h, mean ± SD
  Plasma concentration of psilocin: 32.3 ± 4.98 ng/mL
[2]; 3 mg/kg oral of administered compound, 1 h, mean ± SD
  Plasma concentration of psilocin: 9.29 ± 3.05 ng/mL
[2]; 3 mg/kg oral of administered compound, 2 h, mean ± SD
  Plasma concentration of psilocin: 7.67 ± 0.921 ng/mL
[2]; 3 mg/kg oral of administered compound, 4 h, mean ± SD
  Plasma concentration of psilocin: 6.76 ± 2.13 ng/mL
[2]; 3 mg/kg oral of administered compound, 6 h, mean ± SD
  Plasma concentration of psilocin: 2.41 ± 0.845 ng/mL
[2]; 3 mg/kg oral of administered compound, 8 h, mean ± SD
  Plasma concentration of psilocin: 0.722 ± 0.368 ng/mL
[2]; [5]
  AUC0-tlast/Dose (plasma psilocin): 20.3 ± 2.78 kg·ng·h/mL/mg
  Cmax/Dose (plasma psilocin): 18.5 ± 2.89 kg·ng/mL/mg
[2]; 10 mg/kg oral of administered compound, 0.25 h, mean ± SD
  Plasma concentration of psilocin: 306 ± 34.6 ng/mL
[2]; 10 mg/kg oral of administered compound, 0.5 h, mean ± SD
  Plasma concentration of psilocin: 125 ± 16.3 ng/mL
[2]; 10 mg/kg oral of administered compound, 1 h, mean ± SD
  Plasma concentration of psilocin: 49.6 ± 10.5 ng/mL
[2]; 10 mg/kg oral of administered compound, 2 h, mean ± SD
  Plasma concentration of psilocin: 20.7 ± 1.42 ng/mL
[2]; 10 mg/kg oral of administered compound, 4 h, mean ± SD
  Plasma concentration of psilocin: 31.4 ± 6.34 ng/mL
[2]; 10 mg/kg oral of administered compound, 6 h, mean ± SD
  Plasma concentration of psilocin: 11.5 ± 1.43 ng/mL
[2]; 10 mg/kg oral of administered compound, 8 h, mean ± SD
  Plasma concentration of psilocin: 6.38 ± 2.98 ng/mL
[2]; 10 mg/kg oral of administered compound, 24 h, mean ± SD
  Plasma concentration of psilocin: 0.104 ng/mL
[2]; [6]
  AUC0-tlast/Dose (plasma psilocin): 28.2 ± 4.12 kg·ng·h/mL/mg
  Cmax/Dose (plasma psilocin): 30.6 ± 3.46 kg·ng/mL/mg

## CN(C)CCc1c[nH]c2cccc(OP(=O)(O)O)c12 [psilocybin, reference compound]
In vitro; HLM
  metabolic stability / conversion to psilocin (in words): stable in liver fractions with no conversion to psilocin
In vitro; HLS9
  metabolic stability / conversion to psilocin (in words): stable in liver fractions with no conversion to psilocin
[1]
  metabolic stability / conversion to psilocin (in words): stable in serum with no conversion to psilocin
[3]
  stability in assay buffer (in words): stability of psilocybin was confirmed in assay buffer
[2]; 1 mg/kg i.v., 0.5 h, individual mice
  Plasma concentration of administered (parent) compound: No Peak
[2]; 1 mg/kg i.v., 1 h, individual mice
  Plasma concentration of administered (parent) compound: No Peak
[2]; 1 mg/kg i.v., 2 h, individual mice
  Plasma concentration of administered (parent) compound: No Peak
[2]; 1 mg/kg i.v., 4 h, individual mice
  Plasma concentration of administered (parent) compound: No Peak
[2]; 1 mg/kg i.v., 6 h, individual mice
  Plasma concentration of administered (parent) compound: No Peak
[2]; 1 mg/kg i.v., 8 h, individual mice
  Plasma concentration of administered (parent) compound: No Peak
[2]; 1 mg/kg i.v., individual mice
  tmax (parent compound in plasma): 5 min
[2]; 1 mg/kg i.v., mean ± SD
  tmax (parent compound in plasma): 5 ± 0 min
[2]; 1.56 mg/kg oral of administered compound, 24 h, individual mice
  Plasma concentration of psilocin: BLQ
[2]; 3 mg/kg oral of administered compound, 24 h, individual mice
  Plasma concentration of psilocin: BLQ
[2]; male, C57Bl/6, mouse, plasma, intravenous, 1 mg/kg, Plasma concentration of administered (parent) compound, 1 mg/kg i.v., 5 min, mean ± SD
  concentration at 5 min: 144 ± 167 ng/mL
[2]; male, C57Bl/6, mouse, plasma, intravenous, 1 mg/kg, Plasma concentration of administered (parent) compound, 1 mg/kg i.v., 0.25 h, mean ± SD
  concentration at 0.25 h: 13.2 ± 12.5 ng/mL
[2]; male, C57Bl/6, mouse, plasma, intravenous, 1 mg/kg, Plasma concentration of administered (parent) compound, 1 mg/kg i.v., 0.5 h, mean ± SD
  concentration at 0.5 h: 4.28 ng/mL
[2]; male, C57Bl/6, mouse, plasma, intravenous, 1 mg/kg, Plasma concentration of administered (parent) compound, 1 mg/kg i.v., 1 h, individual mice
  concentration at 1 h: 1.21 ng/mL
[2]; male, C57Bl/6, mouse, plasma, intravenous, 1 mg/kg, Plasma concentration of administered (parent) compound, 1 mg/kg i.v., 1 h, mean
  concentration at 1 h: 1.21 ng/mL
[2]; male, C57Bl/6, mouse, plasma, intravenous, 1 mg/kg, Plasma concentration of administered (parent) compound, 1 mg/kg i.v., 8 h, individual mice
  concentration at 8 h: 2.54 ng/mL
[2]; male, C57Bl/6, mouse, plasma, iv, 1 mg/kg, Cmax (parent compound in plasma), 1 mg/kg i.v., mean ± SD
  Cmax: 144 ± 167 ng/mL
[2]; oral vs i.v. dosing
  detectability of administered compound in plasma (in words): only detectable in i.v. administered animals; also recorded: not detectable in orally administered animals at any dose
